The values below come from patent publication US7378375B1, “Substituted pyridine herbicides” (Syngenta Crop Protection, Inc., priority 2000, dated 2008).

Experiment [1] concerns Monocotyledonous and dicotyledonous test plants. Nature of the experiment: Herbicidal action before emergence of the plants (pre-emergence action), greenhouse pot test, 9-level rating after 4 weeks. The experiment is classed as in vivo. Further details: key: 9-level scale: 1 = complete damage, 9 = no effect. As to conditions: 250 g/ha, rated after 4 weeks, 9-level scale. Put shortly: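 Compounds applied pre-emergence as a spray (500 l water/ha) of aqueous suspension or emulsion onto soil immediately after sowing mono- and dicot species in pots. Greenhouse-grown; damage rated after 4 weeks on a 9-level scale (1=complete damage, 9=no effect).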

Experiment [2] has the same test system. Nature of the experiment: Post-emergence herbicidal action, greenhouse pot test, sprayed at the 2- to 3-leaf stage, 9-level rating after 2 to 3 weeks. The experiment is classed as in vivo. Further details: key: 9-level scale: 1 = complete damage, 9 = no effect. As to conditions: 250 g/ha, rated after 2 to 3 weeks, 9-level scale. The essentials:
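Plants grown in standard soil in pots; test substances sprayed at the 2- to 3-leaf stage at optimum dosage (500 l water/ha) as aqueous suspension or emulsion from formulated concentrates. Plants then kept in the greenhouse under optimum conditions; rated after 2 to 3 weeks on a 9-level scale (1=complete damage, 9=no effect).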

As for `CCC(OC)OCCOCc1nc(C(F)(F)F)ccc1C(=O)C1=C(O)C2CCC(C2)C1=O` (centres unmarked) [A838-B52], in experiment [1], the “Pre-emergence action rating, Abutilon” value is listed as 1; the “Pre-emergence action rating, Amaranthus” value was 1; the “Pre-emergence action rating, Chenop.” value amounted to 1; the “Pre-emergence action rating, Digitaria” value is on record as 3. Besides, in experiment [1], the “Pre-emergence action rating, Echino.” value was determined as 2 and the “Pre-emergence action rating, Panicum” value was 1. Further, in experiment [2], the “Post-emergence action rating, Abutilon” value worked out at 1; the “Post-emergence action rating, Amaranth” value stood at 2; the “Post-emergence action rating, Chenop.” value is reported as 1; the “Post-emergence action rating, Digitaria” value is reported as 2. Besides, in experiment [2], the “Post-emergence action rating, Echino.” value worked out at 3; the “Post-emergence action rating, Ipopur.” value was 2; the “Post-emergence action rating, Panicum” value was found to be 2; the “Post-emergence action rating, Xanth.” value was determined as 2.

For the compound `N#CCCOCc1nc(C(F)(F)F)ccc1C(=O)C1=C(O)C2CCC(C2)C1=O` (centres unmarked) [A849-B52], in experiment [1], the “Pre-emergence action rating, Abutilon” value is 2; the “Pre-emergence action rating, Amaranthus” value was determined as 1; the “Pre-emergence action rating, Chenop.” value worked out at 1; the “Pre-emergence action rating, Digitaria” value is 2. In experiment [1], the “Pre-emergence action rating, Echino.” value amounted to 2 and the “Pre-emergence action rating, Panicum” value came out at 1. Besides, in experiment [2], the “Post-emergence action rating, Abutilon” value is given as 2; the “Post-emergence action rating, Amaranth” value came to 2; the “Post-emergence action rating, Chenop.” value is on record as 2; the “Post-emergence action rating, Digitaria” value was found to be 2. Further, in experiment [2], the “Post-emergence action rating, Echino.” value is 3; the “Post-emergence action rating, Ipopur.” value was 2; the “Post-emergence action rating, Panicum” value is reported as 2; the “Post-emergence action rating, Xanth.” value is on record as 2.

In the case of `CC(C)OCc1nc(C(F)(F)F)ccc1C(=O)c1cnn(C)c1O` [A3-C5], in experiment [1], the “Pre-emergence action rating, Abutilon” value is recorded as 1; the “Pre-emergence action rating, Amaranthus” value was found to be 1; the “Pre-emergence action rating, Digitaria” value is reported as 2; the “Pre-emergence action rating, Echino.” value is given as 2. Also, in experiment [1], the “Pre-emergence action rating, Panicum” value is 1. For the same compound, in experiment [2], the “Post-emergence action rating, Abutilon” value was determined as 3; the “Post-emergence action rating, Amaranth” value amounted to 3; the “Post-emergence action rating, Chenop.” value was 1; the “Post-emergence action rating, Digitaria” value worked out at 4. Moreover, in experiment [2], the “Post-emergence action rating, Echino.” value is listed as 3; the “Post-emergence action rating, Ipopur.” value is 3; the “Post-emergence action rating, Panicum” value turned out to be 3; the “Post-emergence action rating, Xanth.” value is given as 3.

As to `COCCOCc1nc(C(F)(F)F)ccc1C(=O)C1=C(O)CCC(C)(C)C1=O` [A10-B3], in experiment [1], the “Pre-emergence action rating, Abutilon” value stood at 1; the “Pre-emergence action rating, Amaranthus” value is 1; the “Pre-emergence action rating, Chenop.” value was determined as 1; the “Pre-emergence action rating, Digitaria” value amounted to 1. In addition, in experiment [1], the “Pre-emergence action rating, Echino.” value stood at 1 and the “Pre-emergence action rating, Panicum” value amounted to 1. For the same compound, in experiment [2], the “Post-emergence action rating, Abutilon” value is listed as 1; the “Post-emergence action rating, Amaranth” value is on record as 1; the “Post-emergence action rating, Chenop.” value was determined as 1; the “Post-emergence action rating, Digitaria” value was 1. Further, in experiment [2], the “Post-emergence action rating, Echino.” value stood at 3; the “Post-emergence action rating, Ipopur.” value amounted to 2; the “Post-emergence action rating, Panicum” value came to 1; the “Post-emergence action rating, Xanth.” value is on record as 1.

With `CC(=O)OCc1nc(C(F)(F)F)ccc1C(=O)C1=C(O)C2CCC(C2)C1=O` (centres unmarked) [A833-B52, (H4), 3-(2-Hydroxy-4-oxobicyclo[3.2.1]oct-2-en-3-carbonyl)-6-trifluoromethylpyridin-2-yl methyl acetate], in experiment [1], the “Pre-emergence action rating, Abutilon” value worked out at 1; the “Pre-emergence action rating, Amaranthus” value is 1; the “Pre-emergence action rating, Chenop.” value was 1; the “Pre-emergence action rating, Digitaria” value turned out to be 1. In addition, in experiment [1], the “Pre-emergence action rating, Echino.” value was 1 and the “Pre-emergence action rating, Panicum” value is listed as 1. Besides, in experiment [2], the “Post-emergence action rating, Abutilon” value is listed as 3; the “Post-emergence action rating, Amaranth” value is given as 2; the “Post-emergence action rating, Chenop.” value came out at 3; the “Post-emergence action rating, Digitaria” value was 3. For the same compound, in experiment [2], the “Post-emergence action rating, Echino.” value was 4; the “Post-emergence action rating, Ipopur.” value stood at 2; the “Post-emergence action rating, Panicum” value was found to be 3; the “Post-emergence action rating, Xanth.” value is on record as 1.

In the case of `O=C(C1=C(O)C2CCC(C2)C1=O)c1ccc(C(F)(F)F)nc1COCC1CCCO1` (centres unmarked) [A848-B52], in experiment [1], the “Pre-emergence action rating, Abutilon” value is reported as 7; the “Pre-emergence action rating, Amaranthus” value is 1; the “Pre-emergence action rating, Chenop.” value was determined as 1; the “Pre-emergence action rating, Digitaria” value amounted to 1. In experiment [1], the “Pre-emergence action rating, Echino.” value was found to be 1 and the “Pre-emergence action rating, Panicum” value was found to be 1. Further, in experiment [2], the “Post-emergence action rating, Abutilon” value turned out to be 2; the “Post-emergence action rating, Amaranth” value amounted to 1; the “Post-emergence action rating, Chenop.” value turned out to be 1; the “Post-emergence action rating, Digitaria” value is listed as 2. In addition, in experiment [2], the “Post-emergence action rating, Echino.” value is reported as 2; the “Post-emergence action rating, Ipopur.” value is recorded as 2; the “Post-emergence action rating, Panicum” value is on record as 2; the “Post-emergence action rating, Xanth.” value came out at 2.

For the compound `C=CCOCc1nc(C(F)(F)F)ccc1C(=O)C1=C(O)C2CCC(C2)C1=O` (centres unmarked) [A19-B52], in experiment [1], the “Pre-emergence action rating, Abutilon” value stood at 1; the “Pre-emergence action rating, Amaranthus” value was 2; the “Pre-emergence action rating, Digitaria” value came to 1; the “Pre-emergence action rating, Echino.” value was 1. The “Pre-emergence action rating, Panicum” value in experiment [1] is 1. Moreover, in experiment [2], the “Post-emergence action rating, Abutilon” value is 1; the “Post-emergence action rating, Amaranth” value came out at 1; the “Post-emergence action rating, Chenop.” value is listed as 1; the “Post-emergence action rating, Digitaria” value is recorded as 1. In experiment [2], the “Post-emergence action rating, Echino.” value came to 2; the “Post-emergence action rating, Ipopur.” value worked out at 1; the “Post-emergence action rating, Panicum” value is 1; the “Post-emergence action rating, Xanth.” value was determined as 2.

Consider `COCCOCc1nc(C(F)F)ccc1C(=O)C1=C(O)C2CCC(C2)C1=O` (centres unmarked) [A646-B52], for which, in experiment [1], the “Pre-emergence action rating, Abutilon” value was 1; the “Pre-emergence action rating, Amaranthus” value was determined as 2; the “Pre-emergence action rating, Chenop.” value is on record as 1; the “Pre-emergence action rating, Digitaria” value is listed as 1. Moreover, in experiment [1], the “Pre-emergence action rating, Echino.” value stood at 1 and the “Pre-emergence action rating, Panicum” value is reported as 1. In experiment [2], the “Post-emergence action rating, Abutilon” value worked out at 2; the “Post-emergence action rating, Amaranth” value stood at 2; the “Post-emergence action rating, Chenop.” value is 1; the “Post-emergence action rating, Digitaria” value stood at 2. Also, in experiment [2], the “Post-emergence action rating, Echino.” value was found to be 2; the “Post-emergence action rating, Ipopur.” value was 2; the “Post-emergence action rating, Panicum” value amounted to 1; the “Post-emergence action rating, Xanth.” value is 2.

Regarding `O=C(C1=C(O)C2CCC(C2)C1=O)c1ccc(C(F)(F)F)nc1COCC1COCO1` (centres unmarked) [A852-B52], in experiment [1], the “Pre-emergence action rating, Abutilon” value turned out to be 4; the “Pre-emergence action rating, Amaranthus” value came out at 1; the “Pre-emergence action rating, Chenop.” value turned out to be 2; the “Pre-emergence action rating, Digitaria” value is recorded as 1. Further, in experiment [1], the “Pre-emergence action rating, Echino.” value is reported as 1 and the “Pre-emergence action rating, Panicum” value came out at 1. Further, in experiment [2], the “Post-emergence action rating, Abutilon” value came out at 3; the “Post-emergence action rating, Amaranth” value turned out to be 3; the “Post-emergence action rating, Chenop.” value worked out at 1; the “Post-emergence action rating, Digitaria” value was found to be 4. For the same compound, in experiment [2], the “Post-emergence action rating, Echino.” value is on record as 4; the “Post-emergence action rating, Ipopur.” value is recorded as 3; the “Post-emergence action rating, Panicum” value is 3; the “Post-emergence action rating, Xanth.” value is reported as 3.

Consider `COCCOCc1c(C(=O)C2=C(O)C3CCC(C3)C2=O)ccc(C(F)(F)F)[n+]1[O-]` (centres unmarked) [A736-B52], for which, in experiment [1], the “Pre-emergence action rating, Abutilon” value was found to be 1; the “Pre-emergence action rating, Amaranthus” value is reported as 1; the “Pre-emergence action rating, Chenop.” value was 1; the “Pre-emergence action rating, Digitaria” value is 4. In experiment [1], the “Pre-emergence action rating, Echino.” value worked out at 2 and the “Pre-emergence action rating, Panicum” value was determined as 1. Besides, in experiment [2], the “Post-emergence action rating, Abutilon” value came out at 1; the “Post-emergence action rating, Amaranth” value was 1; the “Post-emergence action rating, Chenop.” value worked out at 1; the “Post-emergence action rating, Digitaria” value worked out at 1. In experiment [2], the “Post-emergence action rating, Echino.” value came to 2; the “Post-emergence action rating, Ipopur.” value is 2; the “Post-emergence action rating, Panicum” value was 1; the “Post-emergence action rating, Xanth.” value is reported as 2.

As to `COCCOCc1nc(C(F)(F)F)ccc1C(=O)C1=C(O)C(C)(C)CC(C)C1=O` (centres unmarked) [A10-B4], in experiment [1], the “Pre-emergence action rating, Abutilon” value is on record as 3; the “Pre-emergence action rating, Amaranthus” value was found to be 1; the “Pre-emergence action rating, Chenop.” value is given as 1; the “Pre-emergence action rating, Digitaria” value is given as 3. In experiment [1], the “Pre-emergence action rating, Echino.” value is given as 1 and the “Pre-emergence action rating, Panicum” value is on record as 2. Also, in experiment [2], the “Post-emergence action rating, Abutilon” value is listed as 1; the “Post-emergence action rating, Amaranth” value stood at 2; the “Post-emergence action rating, Chenop.” value is on record as 1; the “Post-emergence action rating, Digitaria” value was found to be 1. Further, in experiment [2], the “Post-emergence action rating, Echino.” value was determined as 2; the “Post-emergence action rating, Ipopur.” value stood at 1; the “Post-emergence action rating, Panicum” value is given as 1; the “Post-emergence action rating, Xanth.” value stood at 2.
